Source: patent US20250177383A1, “DI-CYCLOPROPYL BASED IL-17A MODULATORS AND USES THEREOF” (DICE ALPHA, INC., priority 2022, published 2025)

Assays:
[1] = Microsomal stability, human liver microsomes; assay type: in vitro ADME; settings: human liver microsomes 0.5 mg protein/mL, 1 μM test compound, NADPH, 37° C., 60 min; read-out: HLM Clint
Experimental: (§1) Test compound and control working solution preparation. 5 μL of a compound and control stock solution (10 mM in dimethyl sulfoxide (DMSO)) were diluted with 495 μL of acetonitrile (ACN).
(§2) NADPH cofactor preparation. The appropriate amount of NADPH powder was weighed and diluted into a 10 mM MgCl2 solution (working solution concentration: 10 mM; final concentration in reaction system: 1 mM). Materials: NADPH powder: β-Nicotinamide adenine dinucleotide phosphate reduced form, tetrasodium salt; NADPHA4Na (Vendor: Chem-Impex International, Cat. No. 00616).
(§3) Liver Microsome Preparation. The appropriate concentrations of microsome working solutions were prepared in 100 mM potassium phosphate buffer. Materials: Human Liver Microsomes (HLM) Cat No. 452117 and Lot No. 38295 (Corning); SD Rat Liver Microsomes (RLM) Cat No. R1000 and Lot No. 1910100 (Xenotech).
(§4) Stop solution preparation. Cold (4° C.) acetonitrile (ACN) containing 200 ng/mL tolbutamide and 200 ng/mL labetalol as internal standards (IS) were used as the stop solution.
(§5) Assay Procedure. Empty incubation plates (T60 and NCF60) were warmed for 10 mins prior to use. Liver microsomes were diluted to 0.56 mg/mL in 100 mM phosphate buffer. 445 uL microsome working solutions (0.56 mg/mL) were transferred into pre-warmed ‘Incubation’ plates T60 and NCF60, Then ‘Incubation’ plates T60 and NCF60 were pre-incubated for 10 min at 37° C. with constant shaking. 54 μL liver microsomes were transferred to the blank plate, then 6 μL NAPDH cofactor were added to the blank plate, followed by the addition 180 μL quenching solution to the blank plate. 5 μL compound working solution (100 μM) were added into ‘incubation’ plates (T60 and NCF60) containing microsomes and mixed thoroughly 3 times. To the NCF60 plate 50 μL of buffer were added and mixed 3 times thoroughly. Start timing; plate was incubated at 37° C. for 60 min while shaking. In ‘Quenching’ plate TO, were added 180 μL quenching solution and 6 μL NAPDH cofactor. Plate is chilled to prevent evaporation. The T60 plate, was mixed 3 times thoroughly, and immediately 54 μL of the mixture was removed for the 0-min time point to ‘Quenching’ plate. Then 44 μL NAPDH cofactor was added to the incubation plate (T60). Start timing; plate was incubated at 37° C. for 60 min while shaking. Final concentrations of each component in the incubation media: Microsome (0.5 mg protein/mL); Test compound (1 μM); control compound ([…]); ACN (0.99%); and DMSO (0.01%). At 5, 15, 30, 45, and 60 min, 180 μL quenching solution was added to ‘Quenching’ plates, mixed once, and serially transferred 60 μL of sample from T60 plate per time point to ‘Quenching’ plates. For the NCF60 plate, mix once and 60 μL of sample was transferred from the NCF60 incubation to ‘Quenching’ plate containing quenching solution at the 60-min time point (Start time 1:00:00 and End Time 0:00:00).
(§6) All sampling plates were shaken for 10 min, then centrifuged at 4000 rpm for 20 minutes at 4° C. 80 μL of supernatant were transferred into 240 μL HPLC water, and mixed by plate shaker for 10 min. Each bioanalysis plate was sealed and shaken for 10 minutes prior to LC-MS/MS analysis.

Rat pharmacokinetics, PO = assay type: in vivo; settings: male rat, PO 5 mg/kg oral gavage, plasma, Linear/log trapezoidal; read-out: Rat PO AUC0-t
Experimental: Formulations for PO. An appropriate amount of the test article is weighed and mixed with the appropriate volume of vehicle to get a clear solution or a uniform suspension, vortexing or sonication in water bath may used. Animals are dosed within four hours after the formulation is prepared.
Formulation samples are removed from each of the formulation solutions or suspensions, transferred into 1.5 mL of polypropylene microcentrifuge tubes and run dose validated by LC/UV or LC-MS/MS.
Dose administration. For PO dosing, the dose formulation is administered via oral gavage.
Blood Collection. Each blood collection (about 0.2 mL per time point) is performed from carotid artery cannula (CAC) of each animal into a pre-chilled commercial EDTA-K2 tubes as anti-coagulant, then placed on wet ice until centrifugation. Blood samples are processed for plasma by centrifugation at approximately 4° C., 3,200 g for 10 min. Plasma is collected respectively and a certain amount of plasma from rat is transferred into pre-labeled 96 well plate or polypropylene tubes, quick frozen over dry ice and kept at −60° C. or lower until LC-MS/MS analysis. After terminal collection, all plasmas are stored at approximately −80° C. freezer until final analysis.
Plasma concentration versus time data are plotted in graph and analyzed by non-compartmental approaches using the Phoenix WinNonlin 6.3 software program. Trapezoids: Before TMax (Linear); After Tmax (Log). Partial Area Interpolations: Before TMax (Linear); After Tmax (Log).

[2] = Microsomal stability, rat liver microsomes; assay type: in vitro ADME; settings: SD rat liver microsomes 0.5 mg protein/mL, 1 μM test compound, NADPH, 37° C., 60 min; read-out: RLM Clint
Experimental: as §1, §2, §3, §4, §5, §6

IL-17A/F = target: T1, IL-17A/F (Homo sapiens, UniProt Q16552+Q96PD4); experiment: IL-17A/F HEK-Blue Cell Assay; assay type: cell-based; settings: HEK-Blue IL-17 reporter cells, IL-17A/F stimulation, 20 hours, SEAP readout; read-out: IL17AF HEK Blue pIC50 (converted)
T1 sequence (Q16552 24-155): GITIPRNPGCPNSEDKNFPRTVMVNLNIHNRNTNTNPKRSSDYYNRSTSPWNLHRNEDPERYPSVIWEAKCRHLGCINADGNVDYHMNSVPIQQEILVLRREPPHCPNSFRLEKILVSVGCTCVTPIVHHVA
T1 sequence (Q96PD4 31-163): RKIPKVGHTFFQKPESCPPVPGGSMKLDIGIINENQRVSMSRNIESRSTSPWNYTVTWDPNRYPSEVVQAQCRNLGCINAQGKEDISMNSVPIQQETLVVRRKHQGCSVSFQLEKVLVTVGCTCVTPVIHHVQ

IL-17A/A = target: T2, IL-17A/A (Homo sapiens, UniProt Q16552); experiment: IL-17A/A HEK-Blue Cell Assay; assay type: cell-based; settings: HEK-Blue IL-17 reporter cells, IL-17A/A stimulation, 20 hours, SEAP readout; read-out: IL17 AA HEK-5 pIC50 (converted)
T2 sequence (Q16552 24-155): T1 sequence (Q16552 24-155)
How it was run: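 Cells co-expressing IL-17RA, IL-17RC and Act1 received titrated compound, top final 10 uM in 0.1% DMSO, immediately before IL-17A/A stimulation.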

Structure (SMILES) | microsomal CLint at 1 μM [1] [µL/min/mg] | AUC(0-t) (Rat pharmacokinetics, PO) [ng·h/mL] | microsomal CLint at 1 μM [2] [µL/min/mg] | IC50 (IL-17A/F) [nM] | IC50 (IL-17A/A) [nM]
CCn1nccc1C(=O)N[C@H](C(=O)Nc1ccc([C@H](C)[C@@H](NC(C)=O)C(=O)N2CCN(C)[C@H](C)C2)cc1F)[C@H]1CC[C@H](C)CC1 [C, reference compound] | > 150 | < 500 | > 20 |  | 
CCn1nccc1C(=O)N[C@H](C(=O)Nc1ccc([C@H](C)[C@@H](NC(=O)COC)C(=O)N2CCN(C)[C@H](C)C2)cc1F)C(C1CC1)C1CC1 [Compound 207] | 50 to 150 | > 1000 | < 9.6 | 10 to 100 | < 10
CCC(=O)N[C@@H](C(=O)N1CCN(C)[C@@H](C)C1)[C@@H](C)c1ccc(NC(=O)[C@@H](NC(=O)c2ccnn2CC)[C@H]2CC[C@H](C)CC2)c(F)c1 [I, reference compound] | > 150 | < 500 | 9.6 to 20 |  | 
CCC(=O)N[C@@H](C(=O)N1CCN(C)CC1)[C@@H](C)c1ccc(NC(=O)[C@@H](NC(=O)c2ccnn2C(C)C)[C@H]2CC[C@H](C)CC2)c(F)c1 [L, reference compound] | > 150 | 500 to 1000 | 9.6 to 20 |  | 
CCC(=O)N[C@@H](C(=O)N1CCN(C)[C@H](C)C1)[C@@H](C)c1ccc(NC(=O)[C@@H](NC(=O)c2ccnn2CC)C(C2CC2)C2CC2)c(F)c1 [Compound 209] | 50 to 150 | 500 to 1000 | < 9.6 | 10 to 100 | < 10
CCC(=O)N[C@@H](C(=O)N1C[C@@H](C)N(C)[C@@H](C)C1)[C@@H](C)c1ccc(NC(=O)[C@@H](NC(=O)c2ccnn2CC)C(C2CC2)C2CC2)c(F)c1 [Compound 223] | 50 to 150 | < 500 | 9.6 to 20 |  | < 10
CCC(=O)N[C@@H](C(=O)N1CCN(C)[C@H](C)C1)[C@@H](C)c1ccc(NC(=O)[C@@H](NC(=O)c2ccnn2CC(F)F)[C@H]2CC[C@H](C)CC2)c(F)c1 [E, reference compound] | > 150 | 500 to 1000 | 9.6 to 20 |  | 
CCC(=O)N[C@@H](C(=O)N1CCN(C)[C@H](C)C1)[C@@H](C)c1ccc(NC(=O)[C@@H](NC(=O)c2ccnn2CCF)C(C2CC2)C2CC2)c(F)c1 [Compound 217] | < 50 | < 500 | < 9.6 |  | < 10
CCC(=O)N[C@@H](C(=O)N1CCN(C)[C@H](C)C1)[C@@H](C)c1ccc(NC(=O)[C@@H](NC(=O)c2ccnn2CC)[C@H]2CC[C@H](C)CC2)c(F)c1 [G, reference compound] | > 150 | 500 to 1000 | > 20 |  | 
CCC(=O)N[C@@H](C(=O)N1CCN(C)[C@H](C)C1)[C@@H](C)c1ccc(NC(=O)[C@@H](NC(=O)C2(F)CC2)[C@H]2CC[C@H](C)CC2)c(F)c1 [H, reference compound] | 50 to 150 | < 500 | 9.6 to 20 |  | 
CCc1nonc1C(=O)N[C@H](C(=O)Nc1ccc([C@H](C)[C@@H](NC(C)=O)C(=O)N2CCN(C)[C@H](C)C2)cc1F)C(C1CC1)C1CC1 [Compound 214] | 50 to 150 | < 500 | 9.6 to 20 |  | < 10
CCC(=O)N[C@@H](C(=O)N1CCN(C)[C@H](C)C1)[C@@H](C)c1ccc(NC(=O)[C@@H](NC(=O)c2ccnn2CCF)[C@H]2CC[C@H](C)CC2)c(F)c1 [F, reference compound] | 50 to 150 | 500 to 1000 | 9.6 to 20 |  | 
CCn1nccc1C(=O)N[C@H](C(=O)Nc1ccc([C@H](C)[C@@H](NC(=O)N(C)C2CC2)C(=O)N2CCN(C)CC2)cc1F)C(C1CC1)C1CC1 [Compound 225] | 50 to 150 | < 500 | > 20 |  | < 10
CCC(=O)N[C@@H](C(=O)N1CCN(C)[C@H](C)C1)[C@@H](C)c1ccc(NC(=O)[C@@H](NC(=O)c2ccnn2CC(F)F)C(C2CC2)C2CC2)c(F)c1 [Compound 232] | < 50 | < 500 | < 9.6 |  | < 10
CCn1nccc1C(=O)N[C@H](C(=O)Nc1ccc([C@H](C)[C@@H](NC(=O)COC)C(=O)N2CCN(C)[C@H](C)C2)cc1F)[C@H]1CC[C@H](C)CC1 [D, reference compound] | 50 to 150 | 500 to 1000 | 9.6 to 20 |  | 
CCn1nccc1C(=O)N[C@H](C(=O)Nc1ccc([C@H](C)[C@@H](NC(=O)COC)C(=O)N2CCN(C)CC2)cc1F)[C@H]1CC[C@H](C)CC1 [K, reference compound] | > 150 | 500 to 1000 | < 9.6 |  | 
CCC(=O)N[C@@H](C(=O)N1C[C@@H](C)N(C)C[C@H]1C)[C@@H](C)c1ccc(NC(=O)[C@@H](NC(=O)c2ccnn2CC)[C@H]2CC[C@H](C)CC2)c(F)c1 [A, reference compound] | 50 to 150 | 500 to 1000 | > 20 |  | 
CCn1nccc1C(=O)N[C@H](C(=O)Nc1ccc([C@H](C)[C@@H](NC(=O)N(C)C2CC2)C(=O)N2CCN(C)CC2)cc1F)[C@H]1CC[C@H](C)CC1 [J, reference compound] | > 150 | < 500 | > 20 |  | 
CCC(=O)N[C@@H](C(=O)N1CCN(C)CC1)[C@@H](C)c1ccc(NC(=O)[C@@H](NC(=O)c2ccnn2C(C)C)C(C2CC2)C2CC2)c(F)c1 [Compound 257] | 50 to 150 | 500 to 1000 | < 9.6 |  | < 10
CCn1nccc1C(=O)N[C@H](C(=O)Nc1ccc([C@H](C)[C@@H](NC(=O)COC)C(=O)N2CCN(C)[C@@H](CF)C2)cc1F)[C@H]1CC[C@H](C)CC1 [B, reference compound] | 50 to 150 | < 500 | 9.6 to 20 |  | 
